Assay results reported in patent publication US11300568B2, “Methods for the diagnosis and treatment of gastrointestinal stromal tumors” (INSERM (INSTITUT NATIONAL DE LA SANTE ET DE LA RECHERCHE …, priority 2016, dated 2022).
Where a name gives a salt, the structure may show the parent alone.

Tests used:
GIST = settings: after 5 years; increased from 30% after 1 year; cited from earlier work
[1] = system: LIX1 expression in GIST-T1 cells; assay: LIX1 expression by RT-qPCR in GIST-T1 cells; assay type: cell-based, human; settings: 0.5 μM, 6 h, 24 h and 48 h, vs DMSO control
Description: Analysis of LIX1 expression by RT-qPCR in GIST-T1 cells upon incubation with DMSO alone (control) or with 0.5 μM of imatinib mesylate (KIT inhibitor) for 6 h, 24 h and 48 h. Normalized expression levels were converted to fold changes. **P<0.01; ***P<0.001.
Resistance to tyrosine kinase inhibitors such as imatinib is increasing in GISTs and complete remissions are rare, highlighting the necessity to identify additional therapeutic targets. The inventors investigated the role of LIX1 in secondary imatinib-resistant GISTs using GIST-T1 cells, a primary gastric GIST cell line sensitive to Imatinib treatment that harbors hetereygous deletion in KIT gene with constitutive KIT signaling pathway.

[2] = system: LIX1 transcript levels in GIST882 cells; assay: LIX1 expression by RT-qPCR in GIST882 cells; assay type: cell-based, human; settings: 1 μM, 6 h, 24 h and 48 h, vs DMSO control
Description: FIG. 1: LIX1 is expressed in GISTs. (A) LIX1 mRNA expression and regulation in the GIST882 cell line. (a) Semi-quantitative RT-PCR analysis of LIX1 transcript level in 131N1 (astrocytoma cells), PC3 (prostate cancer cells), HeLa, and GIST882 cells. Loading was verified by glyceraldehyde-3-phosphate dehydrogenase (GAPDH) expression. (b) Analysis of LIX1 expression by RT-qPCR in GIST882 cells upon incubation with DMSO alone (control) or with 7.5 μM of Akti (inhibitor of AKT) for 6 h, 24 h and 48 h. Normalized expression levels were converted to fold changes. *P<0.05; **P<0.01. (c) Analysis of LIX1 expression by RT-qPCR in GIST882 cells upon incubation with DMSO alone (control) or with 1 μM of imatinib mesylate (KIT inhibitor) for 6 h, 24 h and 48 h. […] (b) Relapse-free survival from initial imatinib mesylate treatment in group 1 presenting low level of LIX1 compared with group 2 presenting high level of LIX1 individuals with GIST, assessed in a univariate analysis using the Kaplan-Meier method. […]
Total RNA was extracted from stomachs or cell cultures with the HighPure RNA Isolation kit (Roche). […] Each sample was analysed in three independent experiments done in triplicate. Expression levels were determined with the LightCycler analysis software (version 3.5) relative to standard curves. […] Relative mRNA expression was calculated using the 2^−ΔΔCT method. […]

[3] = system: YAP1 activity (YAP-TEAD interaction); assay: RT-qPCR of YAP1 and its targets CTGF and CYR61 in LIX1-expressing DF-1 cells; assay type: cell-based, chicken; settings: low density, 1 μM for 20 hours
Description: (§1) The chicken DF-1 fibroblast cell line was cultured as previously described. Cell growth in DF-1 cultures was assessed using the Muse Count and Viability reagent following the manufacturer's specifications (Muse Cell Analyzer-Millipore). DF-1 cells were plated on plastic at 2000 cells/cm^2 to obtain low-density cultures and 6000 cells/cm^2 to obtain high-density cultures. Verteporfin (Sellekchem) was used applied to DF-1 cells for 20 hours at a final concentration of 1 μM.
Total RNA was extracted from stomachs or cell cultures with the HighPure RNA Isolation kit (Roche). Reverse transcription was performed using the Verso cDNA synthesis kit (Thermo Scientific) and RT-qPCR was performed using LightCycler technology (Roche Diagnostics). PCR primers were designed using the LightCycler Probe Design 2.0 software. Each sample was analysed in three independent experiments done in triplicate. Expression levels were determined with the LightCycler analysis software (version 3.5) relative to standard curves. Data were represented as the mean level of gene expression relative to the expression of the reference genes UBIQUITIN or GAPDH. Relative mRNA expression was calculated using the 2^−ΔΔCT method.
DF-1 chicken fibroblasts were infected with replication-competent RCAS retroviruses and cultured for 5 days to ensure homogeneous expression. […]

[4] = system: DF-1 fibroblast cell line; assay: Cell proliferation of LIX1-expressing DF-1 cultures (Muse Count and Viability); assay type: cell-based, chicken; settings: LIX1-expressing DF-1 cells, low density, 1 μM for 20 hours
Description: as §1
(§2) DF-1 chicken fibroblasts were infected with replication-competent RCAS retroviruses and cultured for 5 days to ensure homogeneous expression. […] This greater expression was associated with higher transcript levels of YAP1 pro-proliferation target genes CTGF and CYR61 and an increase in cell proliferation. […] After 3 days in culture, LIX1-expressing cells had grown faster than control cells. However, although YAP1 expression in LIX1-expressing cells remained higher than in controls, the levels of CTGF and CYR61 transcripts were similar to control levels.

[5] = system: DF-1 fibroblast cell line; assay: Analysis of cell death in DF-1 cultures; assay type: cell-based, chicken; settings: 1 μM for 20 hours
Description: as §1, §2

Compound	GIST patient survival (GIST) [%]	LIX1 expression [1]	LIX1 transcript levels [2]	YAP1 expression [3]	levels of CTGF and CYR61 transcripts [3]	rates of proliferation [4]	cytotoxic effect (cell death) [5]
Cc1ccc(NC(=O)c2ccc(CN3CCN(C)CC3)cc2)cc1Nc1nccc(-c2cccnc2)n1 [imatinib mesylate]	50	upregulated	strong and efficient inhibition of LIX1 transcript levels	–	–	–	–
verteporfin	–	–	–	upregulation of YAP1 was still observed	comparable with control cells	comparable with control cells	not due to a cytotoxic effect
